Laboratory results from paper PMC6255045, “Tyrosinase Inhibitor Activity of Coumarin-Resveratrol Hybrids” (Molecules, 2009).
Read-outs that look alike come from different tables or passages of the source.

Legend:
mushroom tyrosinase [1] = assay: Tyrosinase inhibition assay (diphenolase activity, L-DOPA as substrate); assay type: biochemical; conditions: for % inhibition (at 0.8 mM) / IC50: mushroom tyrosinase; for % inhibition (at 0.8 mM) / IC50 / tyrosinase inhibitory effect (in words): substrate L-DOPA; for % inhibition (at 0.8 mM): compound at 0.8 mM; for tyrosinase inhibitory effect (in words): diphenolase activity
Protocol: Tyrosinase activity assays were performed with L-DOPA as substrate, as previously described with slight modifications. The pre-incubation with enzyme consisted of a 1/15 M phosphoric acid buffer solution (pH 6.8, 1.8 mL), an aqueous solution of mushroom tyrosinase (1000 U/mL, Sigma Chemical Co., 0.1 mL) and DMSO (0.1 mL) with or without an added sample. The mixture was pre-incubated at 25°C for 10 minutes. Then, a 1.5 mM L-DOPA solution (1 mL) was added and the reaction was monitored at 475 nm for 5 min. The detected absorbance increases accompanying the oxidation of the substrate (L-DOPA). The final concentration of dopaquinone was measured using the molar absorption coefficient of 3,700 M^-1 cm^-1 [31]. One unit of enzymatic activity was defined as the amount of enzyme transforming 1 μmole of L-DOPA per minute. The percentage of inhibition of tyrosinase activity was calculated as inhibition (%) = (A-B)/A×100, where A represents the difference in the absorbance of control sample between an incubation time of 0.5 and 1.0 min, and B represents the difference in absorbance of the test sample between an incubation time of 0.5 and 1.0 min. The activity of mushroom tyrosinase was determinate by spectrophotometric techniques (Varian Cary 50). DMSO inhibitory activity, in the same experimental conditions, was evaluated as 10.7%.

mushroom tyrosinase [2] = conditions: cited from earlier work

Row | Structure (SMILES) | % inhibition (at 0.8 mM) (mushroom tyrosinase [1]) [%] | IC50 (mushroom tyrosinase [1]) [µM] | tyrosinase inhibitory effect (in words) (mushroom tyrosinase [1]) | further results
1 | O=c1ccc2ccc(O)cc2o1 [Umbelliferone] | – | – | – | IC50 (mushroom tyrosinase [2]; mushroom tyrosinase, reference compound, ref [20]): 420 µM
2 | O=c1oc2ccccc2cc1-c1ccc(O)cc1 [Compound 2] | 0 | – | no demonstrable inhibitory effects | –
3 | O=c1cc(-c2cc(O)c(O)c(O)c2)oc2cc(O)cc(O)c12 [pentahydroxyflavone, 3’,4’,5,5’,7-pentahydroxyflavone] | – | – | – | type of tyrosinase inhibition (mushroom tyrosinase [2]; previously reported, ref [29]): competitive inhibitor
4 | O=c1oc2cc(O)ccc2cc1-c1ccc(O)cc1 [Compound 3] | 9.6 | – | no demonstrable inhibitory effects | –
5 | O=c1oc2cc(O)ccc2cc1-c1ccccc1 [Compound 1] | 0 | – | did not inhibit any tyrosinase activity | –

Second part, led by results:

Row | % inhibition (at 0.8 mM) (mushroom tyrosinase [1]) [%] | IC50 (mushroom tyrosinase [1]) [µM] | tyrosinase inhibitory effect (in words) (mushroom tyrosinase [1]) | Structure (SMILES) | further results
6 | 0 | – | – | O=c1oc2ccc(O)cc2cc1-c1cc(O)cc(O)c1 [Compound 5] | –
7 | 19.3 | 3680 | – | O=c1oc2cc(O)ccc2cc1-c1cc(O)cc(O)c1 [Compound 6] | –
8 | 26.7 | 1560 | – | O=c1oc2ccc(O)cc2cc1-c1ccc(O)cc1 [Compound 4, 6-hydroxy-3-(4’-hydroxyphenyl)coumarin] | –
9 | 68.3 | 270 | – | O=c1oc2c(O)cc(O)cc2cc1-c1cc(O)c(O)c(O)c1 [Compound 8, 3-(3’,4’,5’-trihydroxyphenyl)-6,8-dihydroxycoumarin] | type of tyrosinase inhibition (Dixon plot) (mushroom tyrosinase [1]; with respect to L-DOPA as substrate at 0.5, 0.25 and 0.1 mM): non-competitive
10 | 0 | – | – | O=c1oc2c(O)cc(O)cc2cc1-c1cc(O)cc(O)c1 [Compound 7] | –
